Data published in patent EP4541376A1, “ANTIBODY-DRUG CONJUGATES” (priority 2023, dated 2025).
Numbered stars: 1 amine (or outer) side, 2 acyl side, 3 side chain; on linkers, the order of the positions; unused ones are H or OH. Square brackets hold non-standard residues; d marks the D form. Peptide text beside a SMILES is read from it. * marks the point of attachment. Exatecan = CC[C@@]1(O)C(=O)OCc2c1cc1n(c2=O)Cc2c-1nc1cc(F)c(C)c3c1c2[C@@H](N*)CC3; Propanoyl(3-maleimido) = O=C1C=CC(=O)N1CCC(=O)*; PABC = O=C(OCc1ccc(N[*:1])cc1)[*:2]

How the values were obtained:
[1] = Reverse-Phase HPLC retention time correlation study (hydrophobicity); assay type: physicochemical; details: RP-HPLC; high Rt associated to hydrophobic constructs, low Rt to hydrophilic ones
Description: • Column: Phenomenex Gemini NX 5m, C18, 110 Å, 150 × 4.6 mm • Instrument: Shimadzu LC-2030 • Mobile phase: A) water (0.05% TFA), B) acetonitrile (0.05% TFA) • Gradient: 20-70% B over 15 min, flow 1.0 mL/min
A correlation study was also carried out using Reverse-Phase HPLC (RP-HPLC). The two constructs were injected in RP-HPLC and retention times (Rt) correlated with hydrophobicity - i.e., high Rt was associated to hydrophobic constructs whereas low Rt to hydrophilic ones.

[2] = Aggregation study during conjugation to test antibody (% monomer by SEC); assay type: physicochemical
Description: Aggregation is a process in which molecules self-associate with each other. In the context of the present invention, aggregation levels are assessed during the conjugation of a linker construct to an antibody. During conjugation, aggregation is quantified in terms of percentage monomer content. High percentage monomer values typically equate to a lower degree of aggregation. Percentage monomer values of 93% or 95% or higher typically mean negligible levels of aggregation or none, whereas values below this threshold typically translate to higher levels of aggregation.
2 mg of test monoclonal antibody at 8.87 mg/ml was pH adjusted with 5% 0.5 M Tris, 0.025 M EDTA, pH 8.5 and reduced with 2.3 mol. eq. TCEP and then conjugated with 6mol. eq. drug linker. […] Percentage monomer values of 95% or greater are assessed as low aggregation.
Aggregation levels were assessed during the conjugation to the test antibody.
During conjugation, we are ideally targeting a monomer content or percentage monomer of 95% or above. Low percentage monomer values usually translate to a higher degree of aggregation. One could therefore agree that percentage monomer values of 95% or higher mean very low levels of aggregation or none, whereas values below this threshold often translate to higher levels of aggregation.

CC[C@@]1(O)C(=O)OCc2c1cc1n(c2=O)Cc2c-1nc1cc(F)c(C)c3c1c2[C@@H](NC(=O)OCc1ccc(NC(=O)[C@H](C)NC(=O)[C@@H](NC(=O)CNC(=O)CNC(=O)CNC(=O)CNC(=O)CNC(=O)CCN2C(=O)C=CC2=O)C(C)C)cc1)CC3 [Mal-Gly5-VA-PABC-Exatecan] ({Propanoyl(3-maleimido)}-GGGGGVA[PABC]-Exatecan)
Rt [1]: 9.76 min | Aggregation (% monomer) ([2]; % monomer by SEC after conjugation to test monoclonal antibody, 95% or greater assessed as low aggregation): 98% | Aggregation ([2]; grade in words, drug linker conjugated to test monoclonal antibody (2.3 mol. eq. TCEP, 6 mol. eq. drug linker)): None
